Results from patent US9889122B2, “Positive allosteric modulators of nicotinic acetylcholine receptor” (H. Lundbeck A/S, priority 2011, dated 2018).
pEC50: −log10 of the molar value.

Biological target: T1, human α7 receptor (Homo sapiens, UniProt P36544)
T1 construct: host or cells: rat GH4C1 cell line
Assay: α7 NNR flux assay (FDSS Ca assay, Calcium-4 dye, positive allosteric modulation of acetylcholine response)
Format: cell-based
Settings: human α7 receptor stably expressed in rat GH4C1 cell line; acetylcholine 20 μM (~EC100); % modulation relative to reference PNU-120596 set to 100%
Method: The nicotinic acetylcholine receptor α7 is a calcium-permeable ion channel, whose activity can be measured by over expression in mammalian cells or oocytes in this version of the assay, the human α7 receptor is stably expressed in the rat GH4C1 cell line. The assay was used to identify positive allosteric modulators (PAMs) of the α7 receptor. Activation of the channel was measured by loading cells with the calcium-sensitive fluorescent dye Calcium-4 (Assay kit from Molecular Devices), and then measuring real-time changes in fluorescence upon treatment with test compounds.
The cell line ChanClone GH4C1-nAChRalpha7 from Genionics was seeded from frozen stock in 384-well plates in culture media 2-3 days before experiment to form an approximately 80% confluent layer on the day of experiment.
Two or three days before the experiment the cells were seeded in 384 well plates from Greiner bio-one (781946, CELLCOAT, Poly-D-Lysine, black, μClear).
The cells were seeded in 384 well plates with 30 μL/well (30000 cells/well) while stirring the cell suspension or otherwise preventing the cells from precipitating.
The loading buffer was 5% v/v Calcium-4 Kit and 2.5 mM Probenecid in assay buffer.
Culture media were removed from the cell plates and 20 μL loading buffer was added in each well. The cell plates were placed in trays and incubated 90 minutes in the incubator (37° C.). Thereafter the plates were incubated 30 minutes at room temperature, still protected from light.
The assay buffer was HBSS with 20 mM HEPES, pH 7.4 and 3 mM CaCl2.
200 nL 10 mM compound solution in DMSO was diluted in 50 μL assay buffer. The final test concentrations in the cell plates were 20-10-5-2.5-1:25-0.625-0.312-0.156-0.078-0.039 μM. Assay buffer and 3 μM PNU-120596 were used for control.
The agonist acetylcholine was added to a final concentration of 20 μM (˜EC100).
In the FDSS7000 the Ex480-Em540 was measured with 1 second intervals. The baseline was made of 5 frames before addition of test compounds, and 95 frames more were made before addition of acetylcholine. The measurement stopped 30 frames after the 2nd addition. Raw data for each well were collected as “the maximum fluorescence count” in the interval 100-131 seconds and as “the average fluorescence count” in the interval 96-100 seconds. The positive allosteric modulation in the 2nd addition was the enhancement of agonist response with test compound compared to agonist alone.
Results were calculated as % modulation of test compound compared to the reference PNU-120596 set to 100%.

T1 sequence (P36544 23-502): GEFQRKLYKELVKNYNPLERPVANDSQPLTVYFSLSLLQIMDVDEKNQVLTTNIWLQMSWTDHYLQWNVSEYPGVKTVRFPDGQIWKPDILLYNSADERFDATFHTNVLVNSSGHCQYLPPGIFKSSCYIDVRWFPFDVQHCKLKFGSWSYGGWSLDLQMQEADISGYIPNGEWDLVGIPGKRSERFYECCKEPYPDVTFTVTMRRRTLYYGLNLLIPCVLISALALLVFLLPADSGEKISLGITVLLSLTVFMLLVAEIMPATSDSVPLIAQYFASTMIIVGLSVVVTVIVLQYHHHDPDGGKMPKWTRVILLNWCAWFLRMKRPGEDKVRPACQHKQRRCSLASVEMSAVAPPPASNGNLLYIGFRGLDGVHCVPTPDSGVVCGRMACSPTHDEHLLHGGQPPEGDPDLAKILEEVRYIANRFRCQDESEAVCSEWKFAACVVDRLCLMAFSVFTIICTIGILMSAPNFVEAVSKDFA

Row | Compound | pEC50
1 | Cc1ccc([C@H](C)NC(=O)[C@H]2C[C@@H]2c2ccccc2)nc1 [Compound 2, (1S,2S)-2-Phenyl-cyclopropanecarboxylic acid [(S)-1-(5-methyl-pyridin-2-yl)-ethyl]-amide] | 5.25
2 | C[C@H](NC(=O)[C@H]1C[C@@H]1c1ccccc1)c1ccc(C(F)(F)F)nc1 [Compound 6, (1S,2S)-2-Phenyl-cyclopropanecarboxylic acid [(S)-1-(6-trifluoromethyl-pyridin-3-yl)-ethyl]-amide] | 5.28
3 | C[C@H](NC(=O)[C@H]1C[C@@H]1c1ccccc1)c1ccc(OCC(F)(F)F)nc1 [Compound 10, (1S,2S)-2-Phenyl-cyclopropanecarboxylic acid {(S)-1-[6-(2,2,2-trifluoro-ethoxy)-pyridin-3-yl]-ethyl}-amide] | 5.72
4 | CCOc1cc([C@H](C)NC(=O)[C@H]2C[C@@H]2c2ccccc2)ccn1 [Compound 12, (1S,2S)-2-Phenyl-cyclopropanecarboxylic acid [(S)-1-(2-ethoxy-pyridin-4-yl)-ethyl]-amide] | 5.92
5 | C[C@H](NC(=O)[C@H]1C[C@@H]1c1ccccc1)c1ccc(O[C@H]2CCOC2)nc1 [Compound 13, (1S,2S)-2-Phenyl-cyclopropanecarboxylic acid [(S)-1-{6-[(S)-(tetrahydro-furan-3-yl)oxy]-pyridin-3-yl]-ethyl}-amide] | 5.80
6 | C[C@H](NC(=O)[C@H]1C[C@@H]1c1ccccc1)c1ccc(O[C@@H]2CCOC2)nc1 [Compound 14, (1S,2S)-2-Phenyl-cyclopropanecarboxylic acid [(S)-1-{6-[(R)-(tetrahydro-furan-3-yl)oxy]-pyridin-3-yl]-ethyl}-amide] | 5.80
7 | C[C@H](NC(=O)[C@H]1C[C@@H]1c1ccccc1)c1cnc2c(c1)OCO2 [Compound 15, (1S,2S)-2-Phenyl-cyclopropanecarboxylic acid ((S)-1-[1,3]dioxolo[4,5-b]pyridin-6-yl-ethyl)-amide] | 5.25
8 | C[C@H](NC(=O)[C@H]1C[C@@H]1c1ccccc1)c1cnc2c(c1)OCCO2 [Compound 16, (1S,2S)-2-Phenyl-cyclopropanecarboxylic acid [(S)-1-(2,3-dihydro-[1,4]dioxino[2,3-b]pyridin-7-yl)-ethyl]-amide] | 5.17
9 | CCOc1ncc([C@H](C)NC(=O)[C@H]2C[C@@H]2c2ccccc2)cn1 [Compound 17, (1S,2S)-2-Phenyl-cyclopropanecarboxylic acid [(S)-1-(2-ethoxy-pyrimidin-5-yl)-ethyl]-amide] | 5.43
10 | CCCOc1ccc([C@H](CO)NC(=O)[C@H]2C[C@@H]2c2ccccc2)cn1 [Compound 21, (1S,2S)-2-Phenyl-cyclopropanecarboxylic acid [(R)-2-hydroxy-1-(6-propoxy-pyridin-3-yl)-ethyl]-amide] | 6.19
11 | O=C(N[C@@H](CO)c1ccc(C(F)(F)F)nc1)[C@H]1C[C@@H]1c1ccccc1 [Compound 22, (1S,2S)-2-Phenyl-cyclopropanecarboxylic acid [(R)-2-hydroxy-1-(6-trifluoromethyl-pyridin-3-yl)-ethyl]-amide] | 5.26
12 | N#Cc1ccc([C@H](CO)NC(=O)[C@H]2C[C@@H]2c2ccccc2)nc1 [Compound 23, (1S,2S)-2-Phenyl-cyclopropanecarboxylic acid [(R)-1-(5-cyano-pyridin-2-yl)-2-hydroxy-ethyl]-amide] | 5.12
13 | COc1ccc([C@H](CO)NC(=O)[C@H]2C[C@@H]2c2ccccc2)cn1 [Compound 24, (1S,2S)-2-Phenyl-cyclopropanecarboxylic acid [(R)-2-hydroxy-1-(6-methoxy-pyridin-3-yl)-ethyl]-amide] | 5.28
14 | Cc1ccc([C@H](CO)NC(=O)[C@H]2C[C@@H]2c2ccccc2)cn1 [Compound 25, (1S,2S)-2-Phenyl-cyclopropanecarboxylic acid [(R)-2-hydroxy-1-(6-methyl-pyridin-3-yl)-ethyl]-amide] | 5.14
15 | CCOc1ccc([C@H](CO)NC(=O)[C@H]2C[C@@H]2c2cccc(F)c2)cn1 [Compound 27, (1S,2S)-2-(3-Fluoro-phenyl)-cyclopropanecarboxylic acid [(R)-1-(6-ethoxy-pyridin-3-yl)-2-hydroxy-ethyl]-amide] | 6.41
16 | CCOc1ccc([C@H](CO)NC(=O)[C@H]2C[C@@H]2c2ccc(F)cc2)cn1 [Compound 28, (1S,2S)-2-(4-Fluoro-phenyl)-cyclopropanecarboxylic acid [(R)-1-(6-ethoxy-pyridin-3-yl)-2-hydroxy-ethyl]-amide] | 6.21
17 | CCCOc1ccc([C@H](CO)NC(=O)[C@H]2C[C@@H]2c2cccc(F)c2)cn1 [Compound 29, (1S,2S)-2-(3-Fluoro-phenyl)-cyclopropanecarboxylic acid [(R)-2-hydroxy-1-(6-propoxy-pyridin-3-yl)-ethyl]-amide] | 6.07
18 | [2H]C([2H])([2H])COc1ccc([C@H](CO)NC(=O)[C@H]2C[C@@H]2c2ccccc2)cn1 [Compound 31, (1S,2S)-2-Phenyl-cyclopropanecarboxylic acid [(R)-1-(6-(2,2,2-d3)-ethoxy-pyridin-3-yl)-2-hydroxy-ethyl]-amide] | 5.77
19 | [2H]C([2H])(C)Oc1ccc([C@H](CO)NC(=O)[C@H]2C[C@@H]2c2cccc(F)c2)cn1 [Compound 32, (1S,2S)-2-(3-Fluoro-phenyl)-cyclopropanecarboxylic acid [(R)-1-(6-(1,1-d2)-ethoxy-pyridin-3-yl)-2-hydroxy-ethyl]-amide] | 6.28
20 | CCOc1ccc([C@H](CO)NC(=O)[C@H]2C[C@@H]2c2ccccc2)cn1 [Compound 33, (1S,2S)-2-Phenyl-cyclopropanecarboxylic acid [(R)-1-(6-ethoxy-pyridin-3-yl)-2-hydroxy-ethyl]-amide] | 6.00

The next lines start with the values.

Row | pEC50 | Compound
21 | 6.17 | CC(C)Oc1ccc([C@H](C)NC(=O)[C@H]2C[C@@H]2c2ccccc2)cn1 [Compound 1, (1S,2S)-2-Phenyl-cyclopropanecarboxylic acid [(S)-1-(6-isopropoxy-pyridin-3-yl)-ethyl]-amide]
22 | 5.24 | COc1ccc([C@H](C)NC(=O)[C@H]2C[C@@H]2c2ccccc2)cn1 [Compound 3, (S, 2S)-2-Phenyl-cyclopropanecarboxylic acid-[(S)-1-(6-methoxy-pyridin-3-yl)-ethyl]-amide]
23 | 5.09 | Cc1ccc([C@H](C)NC(=O)[C@H]2C[C@@H]2c2ccccc2)cn1 [Compound 4, (1S,2S)-2-Phenyl-cyclopropanecarboxylic acid [(S)-1-(6-methyl-pyridin-3-yl)-ethyl]-amide]
24 | 5.11 | C[C@H](NC(=O)[C@H]1C[C@@H]1c1ccccc1)c1ccc(C#N)nc1 [Compound 5, (1S,2S)-2-Phenyl-cyclopropanecarboxylic acid [(S)-1-(6-cyano-pyridin-3-yl)-ethyl]-amide]
25 | 6.02 | CCOc1ccc([C@H](C)NC(=O)[C@H]2C[C@@H]2c2ccccc2)cn1 [Compound 7, (1S,2S)-2-Phenyl-cyclopropanecarboxylic acid [(S)-1-(6-ethoxy-pyridin-3-yl)-ethyl]-amide]
26 | 5.43 | CCc1ccc([C@H](C)NC(=O)[C@H]2C[C@@H]2c2ccccc2)cn1 [Compound 8, (1S,2S)-2-Phenyl-cyclopropanecarboxylic acid [(S)-1-(6-ethyl-pyridin-3-yl)-ethyl]-amide]
27 | 5.21 | COCc1ccc([C@H](C)NC(=O)[C@H]2C[C@@H]2c2ccccc2)cn1 [Compound 9, (1S,2S)-2-Phenyl-cyclopropanecarboxylic acid [(S)-1-(6-methoxymethyl-pyridin-3-yl)-ethyl]-amide]
28 | 5.42 | COCCOc1ccc([C@H](C)NC(=O)[C@H]2C[C@@H]2c2ccccc2)cn1 [Compound 11, (1S,2S)-2-Phenyl-cyclopropanecarboxylic acid {(S)-1-[6-(2-methoxy-ethoxy)-pyridin-3-yl]-ethyl}-amide]
29 | 5.43 | C[C@H](NC(=O)[C@H]1C[C@@H]1c1ccccc1)c1ccc(Cl)nc1 [Compound 18, (1S,2S)-2-Phenyl-cyclopropanecarboxylic acid [(S)-1-(6-chloro-pyridin-3-yl)-ethyl]-amide]
30 | 6.41 | CC(C)Oc1ccc([C@H](CO)NC(=O)[C@H]2C[C@@H]2c2ccccc2)cn1 [Compound 26, (1S,2S)-2-Phenyl-cyclopropanecarboxylic acid [(R)-2-hydroxy-1-(6-isopropoxy-pyridin-3-yl)-ethyl]-amide]
